Experimental data taken from patent publication US20230192617A1, “AZABICYCLIC(THIO)AMIDES AS FUNGICIDAL COMPOUNDS” (Bayer CropScience Aktiengesellschaft, priority 2020, published 2023).

Tests used:
Pyrenophora teres [1] = assay: B-10. Pyrenophora teres in vitro cell test; format: cell-based; conditions: 144 h, 20 ppm of active ingredient, 6 days incubation, liquid culture, absorbance, read-out: efficacy (inhibition of fungal growth)
Method in brief: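 Liquid-culture assay on a P. teres spore suspension with compounds added to the medium from DMSO solutions, final DMSO ≤1%. Mycelium growth read spectrometrically after 6 days. Inhibition calculated from absorbance against untreated control wells.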

[2] = Measurement of Log P values by HPLC on reversed phase columns (EEC directive 79/831 Annex V.A8); format: physicochemical; conditions: reversed phase HPLC column, method [a]: LC-UV, acidic range, 0.1% formic acid in water and acetonitrile as eluent
Method in brief: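 Log P derived from retention on reversed-phase columns (EEC directive 79/831 Annex V.A8), LC-UV, acetonitrile gradient 10% to 95% against water containing 0.1% formic acid, 0.001 M ammonium acetate, or 0.1% phosphoric acid; several values per method separated by "+".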

Alternaria alternata = Alternaria alternata in vitro cell test; format: cell-based; conditions: 120 h, 20 ppm of active ingredient, liquid culture, 5 days incubation, spectrometric measurement of mycelium growth, read-out: efficacy (inhibition of fungal growth)
Method in brief: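 Spectrometric readout of mycelial growth after 5-day incubation gauged compound effects on spore germination and growth of A. alternata in liquid medium. Compounds were delivered in DMSO at ≤1% final. Absorbance was compared with untreated controls to give inhibition.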

[3] = tested on: Colletotrichum lindemuthianum; assay: B-8. Colletotrichum lindemuthianum in vitro cell test; format: cell-based; conditions: 144 h, 20 ppm of active ingredient, 6 days incubation, liquid culture, absorbance, read-out: efficacy (inhibition of fungal growth)
Method in brief: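 Liquid-culture germination/growth test: compounds in ≤1% final DMSO were added to spore-containing medium. Fungal growth was quantified spectrophotometrically after 6 days of incubation and expressed as inhibition versus untreated controls.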

Septoria tritici = assay: B-9. Septoria tritici in vitro cell test; format: cell-based; conditions: Zymoseptoria tritici, 168 h; 20 ppm of active ingredient; 7 days incubation; liquid culture, absorbance; read-out: efficacy (inhibition of fungal growth)
Experimental: B-9. Septoria tritici In Vitro Cell Test [table] Fungicides were solubilized in DMSO and the solution used to prepare the required range of concentrations. The final concentration of DMSO used in the assay was ≤1%. A spore suspension of S. tritici was prepared and diluted to the desired spore density. Fungicides were evaluated for their ability to inhibit spore germination and mycelium growth in liquid culture assay. The compounds were added in the desired concentration to the culture medium with spores. After 7 days incubation, fungi-toxicity of compounds was determined by spectrometric measurement of mycelium growth. Inhibition of fungal growth was determined by comparing the absorbance values in wells containing the fungicides with the absorbance in control wells without fungicides.

Botrytis cinerea [4] = assay: B-11. Botrytis cinerea in vitro cell test; format: cell-based; conditions: 144 h, 20 ppm of active ingredient, 6 days incubation, liquid culture, absorbance, read-out: efficacy (inhibition of fungal growth)
Method in brief: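 B. cinerea spores were grown in liquid culture with compound (DMSO ≤1% final). Mycelium growth was measured spectrometrically after 6 days, with inhibition taken as absorbance relative to untreated control wells.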

Alternaria brassicae = assay: In vivo preventive test on Alternaria brassicae (leaf spot on radish or cabbage); conditions: 500 ppm of active ingredient, preventive spray on radish or cabbage, evaluated 3 to 4 days after inoculation, read-out: efficacy
Method in brief: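 Protective spray on young radish or cabbage: actives in water diluted from DMSO/acetone/Tween 80, with solvent-only controls. Leaves were challenged after 24 h with a spore suspension, and plants were held at 100% RH, 20 °C for 3 to 4 days.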

Botrytis cinerea [5] = assay: In vivo preventive test on Botrytis cinerea (grey mould); conditions: 500 ppm of active ingredient, preventive spray on gherkin or cabbage, evaluated 4 to 5 days after inoculation, read-out: efficacy
Method in brief: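 Preventive spray on cabbage or gherkin seedlings, with compound formulated in DMSO/acetone/Tween 80 and water-diluted, preceded spore inoculation by 24 hours. Cabbage was held 4 to 5 days at 20° C., 100% relative humidity; gherkin 4 to 5 days at 17° C., 90% relative humidity.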

Sphaerotheca fuliginea = assay: In vivo preventive test on Sphaerotheca fuliginea (powdery mildew on cucurbits); conditions: Podosphaera fuliginea, 192 h; 500 ppm of active ingredient; preventive spray on gherkin; evaluated 8 days after inoculation; read-out: efficacy
Method in brief: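 This is a preventive spray test on gherkin seedlings, with compound formulated in DMSO/acetone/Tween 80 in water and solvent-only controls. Spore inoculation followed one day after treatment. Incubation lasted 8 days at 20 °C, 70–80% RH.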

[6] = tested on: Colletotrichum lindemuthianum; assay: In vivo preventive test on Colletotrichum lindemuthianum (leaf spot on bean); conditions: 168 h, 500 ppm of active ingredient, preventive spray on bean, evaluated 7 days after inoculation, read-out: efficacy
Method in brief: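 Young bean plants sprayed with compound in DMSO/acetone/Tween 80 diluted in water; solvent-only controls. Inoculated 24 h later with C. lindemuthianum spore suspension, then kept 24 h at 20 °C/100% RH and 6 days at 20 °C/90% RH.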

Pyrenophora teres [7] = assay: In vivo preventive test on Pyrenophora teres (net blotch on barley); conditions: 240 h, 500 ppm of active ingredient, preventive spray on barley, evaluated 10 days after inoculation, read-out: efficacy
Experimental: B-3. In Vivo Preventive Test on Pyrenophora Teres (Net Blotch on Barley) [table] The active ingredients were made soluble and homogenized in a mixture of Dimethyl sulfoxide/Acetone/Tween® 80 and then diluted in water to the desired concentration. The young plants of barley were treated by spraying the active ingredient prepared as described above. Control plants were treated only with an aqueous solution of Acetone/Dimethyl sulfoxide/Tween® 80. After 24 hours, the plants were contaminated by spraying the leaves with an aqueous suspension of Pyrenophora teres spores. The contaminated barley plants were incubated for 48 hours at 20° C. and at 100% relative humidity and then for 8 days at 20° C. and at 70-80% relative humidity.

| SMILES | inhibition at 20 ppm (Pyrenophora teres [1]) | chromatographic logP [2] | inhibition at 20 ppm (Alternaria alternata) | inhibition at 20 ppm [3] | inhibition at 20 ppm (Septoria tritici) | inhibition at 20 ppm (Botrytis cinerea [4]) | pest or weed control at 500 ppm (Alternaria brassicae) | pest or weed control at 500 ppm (Botrytis cinerea [5]) | pest or weed control at 500 ppm (Sphaerotheca fuliginea) | pest or weed control at 500 ppm [6] | pest or weed control at 500 ppm (Pyrenophora teres [7]) |
| --- | --- | --- | --- | --- | --- | --- | --- | --- | --- | --- | --- |
| Cc1ccc(C(F)CNC(=O)c2c(Oc3cccc(C(F)(F)F)c3)nnc3c2CCC3)c(C)c1 (stereo not shown) [I-138] | 90 to 100% | 3.84 | 90 to 100% | 90 to 100% | 90 to 100% | 90 to 100% | – | – | – | – | – |
| O=C(NOCc1ccc(C(F)(F)F)cc1)c1c(Oc2cccc(C(F)(F)F)c2)nnc2ccccc12 [I-089] | 90 to 100% | 3.42 | 90 to 100% | 90 to 100% | 80 to 89% | 90 to 100% | 90 to 100% | 70 to 79% | – | – | – |
| O=C(NCC(F)c1ccc(Cl)cc1Cl)c1c(Oc2cccc(Cl)c2)nnc2c1CCCC2 (stereo not shown) [I-179] | 90 to 100% | 3.89 | 90 to 100% | 90 to 100% | 90 to 100% | 90 to 100% | – | – | – | – | – |
| Cc1cc(Br)ccc1[C@@H](F)CNC(=O)c1c(Oc2cccc(Cl)c2)nnc2ccccc12 (racemic) [I-055] | – | 4.33 | 90 to 100% | 90 to 100% | – | 90 to 100% | 90 to 100% | 90 to 100% | 90 to 100% | 70 to 79% | 80 to 89% |
| O=C(NCC(F)(F)c1ccc(Cl)cc1)c1c(Oc2cccc(C(F)F)c2)nnc2c1CCCC2 [I-120] | 90 to 100% | 3.37 | 90 to 100% | 90 to 100% | 80 to 89% | 90 to 100% | – | – | – | – | – |
| Cc1ccc(CCNC(=O)c2c(Oc3cccc(C(F)(F)F)c3)cnc3ccoc23)c(C)c1 [I-068] | 90 to 100% | 4.04 | 90 to 100% | 90 to 100% | – | 90 to 100% | 90 to 100% | 90 to 100% | 90 to 100% | 90 to 100% | 80 to 89% |
| Cc1ccc(CCNC(=O)c2c(Oc3cccc(C(F)(F)F)c3)cnc3c2OCCO3)c(C)c1 [I-110] | – | 3.6 | 90 to 100% | 90 to 100% | – | – | 90 to 100% | 90 to 100% | 90 to 100% | 90 to 100% | 90 to 100% |
| Cc1ccc([C@@H](F)CNC(=O)c2c(Oc3cccc(C(F)(F)F)c3)nnc3c2OCC(C)(C)CO3)c(C)c1 (racemic) [I-156] | 90 to 100% | 4.15 | 90 to 100% | 90 to 100% | 90 to 100% | 90 to 100% | – | – | – | – | – |
| Cc1ccc(C(F)(F)CNC(=O)c2c(Oc3cccc(C(F)(F)F)c3)cnc3c2OCCO3)c(C)c1 [I-109] | – | 3.71 | 90 to 100% | 90 to 100% | – | – | 90 to 100% | 90 to 100% | 90 to 100% | 90 to 100% | 90 to 100% |
